SMILES strings stand for the structures. Calls of active or inactive are those of the source. The calls are words filed in the database; no cut-off is given here.

Test [1] is described as follows: Inhibition of Plasmodium falciparum IspC.
A short description of test [2]: Inhibition of Escherichia coli IspC.
In a further test the test system is Plasmodium falciparum. As to the kind of experiment: Antimicrobial activity against chloroquine-resistant Plasmodium falciparum K1 infected in human erythrocytes assessed as inhibition of parasite replication. It counts as functional, organism-based.
The next test has as its system MRC5. As to the kind of experiment: Cytotoxicity against human MRC5 cells. Type of test: cell-based.
The test system of test [3] is Plasmodium berghei. The test can be described thus: Antimalarial activity against Plasmodium berghei ANKA infected in Swiss mouse assessed as suppression of infected RBC at 10 mg/kg, ip qd for 5 days coadministered with ritonavir 10 mg/kg, po measured on day 4. Type of test: functional.
Test [4] relates to Plasmodium berghei. The test can be described thus: Antimalarial activity against Plasmodium berghei ANKA infected in Swiss mouse assessed as survival at 10 mg/kg, ip qd for 5 days coadministered with ritonavir 10 mg/kg, po.
Test [5] relates to Plasmodium berghei. The test can be described thus: Antimalarial activity against Plasmodium berghei ANKA infected in Swiss mouse assessed as suppression of infected RBC at 40 mg/kg, ip bid for 5 days coadministered with ritonavir 10 mg/kg, po. It counts as functional.
For test [6], the system named is Plasmodium berghei. The test can be described thus: Antimalarial activity against Plasmodium berghei ANKA infected in Swiss mouse assessed as survival at 40 mg/kg, ip bid for 5 days coadministered with ritonavir 10 mg/kg, po.
Where [7] appears, read: Plasmodium falciparum, K1, read-out: IC50.

Turning to `CCN(O)C(=O)CCC(c1ccccc1)P(=O)(O)O` (centres undefined), the IC50 in test [1] (read-out: IC50) is 15 nM; in test [2] (read-out: IC50), 15000 nM; with Plasmodium falciparum (setting [7]), 1300 nM; in the test on MRC5, above 64000 nM.

Consider `CN(O)C(=O)CCC(c1cccc2ccccc12)P(=O)(O)O` (centres undefined), for which the IC50 in test [1] (read-out: IC50) is 9 nM; in test [2] (read-out: IC50), 3800 nM; with Plasmodium falciparum (setting [7]), 970 nM; with MRC5, above 62000 nM.

For the molecule `CCN(CC)CCCC(C)Nc1ccnc2cc(Cl)ccc12` (centres undefined) [CHLOROQUINE], the Activity in the test with Plasmodium berghei [3] is reported as 98%. The Survival result with Plasmodium berghei [4] is “Active”.

For `O=C(CCC(c1cccc2ccccc12)P(=O)(O)O)NO` (centres undefined), the IC50 in test [1] (read-out: IC50) was 37 nM; in test [2] (read-out: IC50) it was 7400 nM; with Plasmodium falciparum (setting [7]), 2400 nM; in the test with MRC5 it was above 64000 nM.

With `CN(O)C(=O)CCC(c1ccc(F)c(F)c1)P(=O)(O)O` (centres undefined), the 50% inhibitory concentration (IC50) in test [1] (read-out: IC50) is 3 nM; in the test on Plasmodium falciparum (setting [7]), 290 nM; with MRC5, above 64000 nM. The Activity in the test with Plasmodium berghei [5] is 78%. Besides, the Survival result in the test with Plasmodium berghei [6] was “inactive”.

As to `CN(O)C(=O)CCC(c1ccc(Cl)c(Cl)c1)P(=O)(O)O` (centres undefined), the concentration for half-maximal inhibition (IC50) in test [1] (read-out: IC50) was 4 nM; in test [2] (read-out: IC50) it was 290 nM; in the test on Plasmodium falciparum (setting [7]), 410 nM; with MRC5, above 64000 nM.

For `O=CN(O)CCCP(=O)(O)O` [FOSMIDOMYCIN], the IC50 in test [1] (read-out: IC50) is 140 nM; in test [2] (read-out: IC50) it was 220 nM; in the test on Plasmodium falciparum (setting [7]), 3700 nM; in the test on MRC5 it was above 62000 nM. Moreover, the Activity in the test on Plasmodium berghei [5] turned out to be 92%. Further, in the test on Plasmodium berghei [6], the Survival result was “Active”.

In the case of `CC(C)N(O)C(=O)CCC(c1ccccc1)P(=O)(O)O` (centres undefined), the IC50 result was “Not Active” in test [1], “Not Active” in test [2], “Not Active” with Plasmodium falciparum and above 64000 nM in the test on MRC5.

As for `O=C(CCC(c1ccc(F)c(F)c1)P(=O)(O)O)NO` (centres undefined), the IC50 was 3 nM in test [1] (read-out: IC50), 210 nM in test [2] (read-out: IC50), 380 nM in the test on Plasmodium falciparum (setting [7]) and above 64000 nM in the test with MRC5. Also, the Activity in the test with Plasmodium berghei [5] came to 89%. The Survival result in the test with Plasmodium berghei [6] is “Active”.

Source of the values: ChEMBL document CHEMBL1828585, “Reverse fosmidomycin derivatives against the antimalarial drug target IspC (Dxr)” (J Med Chem, 2011).
